Experiments:
LNCaP cells = experiment: [3H]-Thymidine proliferation assay with LNCaP cells; format: cell-based; details: prostate cancer cells, 3 days, 3H-thymidine incorporation
Experimental: 1. Preparation of Cell Suspension. • When LNCaP cells were 70-80% confluent, aspirated media. Washed the cells with 1×PBS. Trypsinized with trypsin-EDTA from the plate, collected cells from the tissue culture flask, centrifuged (500×g, 5 min) and resuspended in media.
2. Cell Plating. • Counted the cells and adjusted the cell density to 2,000/ml. Added 200 μl per well in a 96 well plate. Incubated plate for 24 h at 37° C. in a humidified atmosphere plus 5% CO2. Aspirated used media and replace with 175 μl per well with media.
3. Substrate Addition. • Added 25 μl of compound (final concentration 10^−7 M, 5×10^−8 M, 10^−8 M, 5×10^−9 M, 10^−10 M or 0 M) into each designated well. Incubated plates for 3 days at 37° C. in a humidified atmosphere plus 5% CO2.
(§1) 4. ^3H-Thymidine Incorporation. • Added ^3H-thymidine at 0.02 μCi per well and incubated at 37° C. in a humidified atmosphere plus 5% CO2 for 6 h.
5. Plate Harvesting. • Aspirated all media. Trypsinized cells for 30 min at 37° C. in a humidified atmosphere plus 5% CO2. Harvested cells onto a 96 well filter plate (Millipore) using a Tomtec Cell Harvestor, according to manufacturers instructions.
6. Scintillation Counting. • Added 25 μl of scintillation fluid per well. Counted the plate using a scintillation counter. Results: Compound (20R)-I(e) inhibited LNCaP cell proliferation.

[1] = target: T1, DBP (vitamin D binding protein) (Homo sapiens, UniProt P02774); experiment: DBP binding assay (human plasma, [3H]-25(OH)D3 displacement); details: human plasma diluted 1:5000; read-out: B50 (DBP binding, displacement of 50 percent [3H]-25(OH)D3)
T1 construct: Human plasma diluted to 1:5000 with Tris buffer/gelatin solution; from tissue; host or cells: human plasma
T1 sequence (P02774 17-474): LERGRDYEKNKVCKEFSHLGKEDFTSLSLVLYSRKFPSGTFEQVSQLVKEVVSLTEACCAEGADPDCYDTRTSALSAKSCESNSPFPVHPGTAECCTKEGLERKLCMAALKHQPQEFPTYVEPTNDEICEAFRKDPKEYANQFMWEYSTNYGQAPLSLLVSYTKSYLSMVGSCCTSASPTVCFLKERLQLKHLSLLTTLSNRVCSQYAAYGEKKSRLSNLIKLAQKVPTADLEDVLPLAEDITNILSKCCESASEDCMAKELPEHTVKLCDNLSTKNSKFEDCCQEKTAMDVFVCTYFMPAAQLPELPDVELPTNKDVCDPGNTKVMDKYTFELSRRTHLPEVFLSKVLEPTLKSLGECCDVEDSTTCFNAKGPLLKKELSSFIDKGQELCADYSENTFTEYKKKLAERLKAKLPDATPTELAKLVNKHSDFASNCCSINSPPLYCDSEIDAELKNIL
Experimental: 1. Tris buffer: • 22.50 g Tris-HCI • 500 ml H2O
5. DBP (vitamin D binding protein) (human plasma)
2. Dextran Coated Charcoal Solution • (1) preparation of charcoal solution • Norit decolorizing neutral charcoal 2.0 g • Tris buffer 150 mL • Stirring • (2) preparation of dextran solution • Dextran T—70 0.2 g • Tris buffer 50 ml • (3) preparation of dextran coated charcoal solution • Slowly dripped the dextran solution into charcoal solution with stirring. • Kept refrigerated overnight. • Thirty minute before use, kept it on ice with continuous mixing. • This solution can be kept in 4° C. for 2 month.
4. DBP Solution • Human plasma diluted to 1:5000 with Tris buffer/gelatin solution
8. [^3H-26,27]-[…] Solution • Stock solution diluted in Tris buffer, 20,000 CPM/50 μl. (C) Assay
(D) Calculation: • The amount of 25(OH)D3 to displace 50 percent [3H]-25(OH)D3 was calculated as B50 for 25(OH)D3 DBP binding. The DBP binding of other compounds was calculated as B50 relative to a value of 1 for 25(OH)D3.

BxPC-3 cells = experiment: [3H]-Thymidine proliferation assay with BxPC-3 cells; format: cell-based; details: pancreatic cancer cells, 3 days, 3H-thymidine incorporation
Experimental: 1. Preparation of Cell Suspension • When BxPC-3 cells were 70-80% confluent, aspirated media. Washed the cells with 1×PBS. Trypsinized with trypsin-EDTA from the plate, collected cells from the tissue culture flask, centrifuged (500×g, 5 min) and resuspended in media.
2. Cell Plating. • Counted the cells and adjusted the cell density to 2,000/ml. Added 200 μl per well in a 96 well plate. Incubated plate for 24 h at 37° C. in a humidified atmosphere plus 5% CO2. Aspirated used media and replaced with 175 μl per well with media.
3. Substrate Addition. • Added 25 μl of compound (final concentration 10^−7 M, 5×10^−8 M, 10^−8M, 5×10^−9 M, 10^−10 M or 0 M) into each designated well. Incubated plates for 3 days at 37° C. in a humidified atmosphere plus 5% CO2.
as §1
5. Plate Harvesting. • Aspirated all media and washed cells with 1×PBS. Trypsinized cells for 30 min at 37° C. in a humidified atmosphere plus 5% CO2. Harvested cells onto a 96 well filter plate (Millipore) using a Tomtec Cell Harvestor, according to manufacturers instructions.
6. Scintillation Counting. • Added 25 μl of scintillation fluid per well. Counted the plate using a scintillation counter. Results: Compound (20R)-I(e) inhibited BxPC-3 cell proliferation.

OVCAR-3 cells = experiment: [3H]-Thymidine proliferation assay with OVCAR-3 cells; format: cell-based; details: ovarian cancer cells, 6 days, 3H-thymidine incorporation
Experimental: 1. Preparation of Suspension • When OVCAR-3 cells were ˜50% confluent, aspirated media. Washed cells with 1×PBS. Trypsinized with trypsin-EDTA, collected cells from the tissue culture flask, centrifuged (200×g, 5 min) and resuspended in media.
2. Cell Plating. • Counted the cells and adjusted the cell density to 11.4×10^3 to provide 2000 cells in 175 μl (for 1 well). Distributed cell suspension into a 96 well plates at 175 μl (2000 cells) per well. Incubated plate for 24 h at 37° C. in a humidified atmosphere plus 5% CO2. • Substrate addition. • Added 25 μl of compound (final concentration 10^−7 M, 5×10^−8 M 10^−8 M, 5×10^−9 M, 10^−9 M, 10^−10M or 0 M) into each designated well. Incubated plates for 6 days without changing media and drugs at 37° C. in a humidified atmosphere plus 5% CO2.
3. [^3H]-Thymidine incorporation • Added ^3H-thymidine at 0.02 μCi per well and incubated at 37° C. in a humidified atmosphere plus 5% CO2 for 6 h.
4. Plate Harvesting. • Aspirated all media and washed cells with 1×PBS. Trypsinized cells for 30 min at 37° C. in a humidified atmosphere plus 5% CO2. Harvested cells onto a 96 well filter plate (Millipore) using a Tomtec Cell Harvestor, according to manufacturers instructions.
5. Scintillation Counting. • Added 25 μl of scintillation fluid per well. Counted the plate using a scintillation counter. Results: Compounds (20R)-I(a), (20R)-I(c) and (20R)-I(e) all inhibited the proliferation of OVCAR-3 cells.

C=C1/C(=C\C=C2/CCC[C@]3(C)C([C@H](C)C/C=C/C(=NOC)C(C)(C)C)=CC[C@@H]23)C[C@@H](O)C[C@@H]1O [(20R)-I(e)]
Inhibition of LNCaP cell proliferation (LNCaP cells): inhibited | IC50 [1]: > 3.5 µM | Inhibition of BxPC-3 cell proliferation (BxPC-3 cells): inhibited | Inhibition of OVCAR-3 cell proliferation (OVCAR-3 cells): inhibited
